Assay results published in patent publication US20250018014A1, “METHOD FOR TREATING AND/OR PREVENTING REGNASE-1-RELATED DISEASE” (OSAKA UNIVERSITY, priority 2018, published 2025).
Like-named read-outs stand apart in the source and are kept apart here. Residues, ends and D or L forms follow the SMILES beside them.

Key:
Format in all cases: biochemical
[1] = biological target: T1, Reg1_301-599 (amino acids 301-599 of human Regnase-1) phosphorylation by IKKβ (Homo sapiens, UniProt Q5D1E8); test: Regnase-1 phosphorylation inhibition by compounds (AlphaScreen), IKKβ, C-terminal Regnase-1; settings: Table 14, read-out: Phosphorylation inhibition Reg1_301-599, 50% inhibition concentration (IKKβ)
T1 construct: made in house; host or cells: Expi293 cells
T1 sequence (Q5D1E8 301-599): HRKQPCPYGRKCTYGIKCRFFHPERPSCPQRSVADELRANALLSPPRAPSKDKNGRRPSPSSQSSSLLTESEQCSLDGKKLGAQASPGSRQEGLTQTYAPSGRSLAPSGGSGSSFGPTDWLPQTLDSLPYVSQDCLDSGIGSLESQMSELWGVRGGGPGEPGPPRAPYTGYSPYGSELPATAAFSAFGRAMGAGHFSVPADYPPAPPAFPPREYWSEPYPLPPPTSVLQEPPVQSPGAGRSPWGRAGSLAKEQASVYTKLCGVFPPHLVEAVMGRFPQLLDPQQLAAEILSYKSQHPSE
Text: (§1) The full-length sequence of human Regnase-1 (UniProt ID: Q5D1E8) was used to prepare a construct having a FLAG tag on the N-terminal side and a recognition sequence for biotin ligase BirA on the C-terminal side (FL_Reg1) as a target protein. The above-mentioned Regnase-1 was expressed in mammalian Expi293 cells, purified with FLAG M2 agarose, and isolated by gel filtration chromatography. When biotinylation was required, methods from nonpatent documents (BMC biotechnology, 2008,8,41; and Protein Science, 1999,8,921-929) were used.
(§2) Among the full-length human Regnase-1 sequence, the 1st to 546th amino acid sequence was prepared and made into a construct having a FLAG tag on the N-terminal side and a biotin ligase BirA recognition sequence on the C-terminal side (herein, a Regnase-1 lacking the C-terminal domain of Regnase-1 (amino acids 547 to 599 in the case of SEQ ID NO: 2) is referred to as “ΔCTD_Reg1”. “ΔCTD_Reg1” is different from “Regnase-1ΔCTD”, which is a C-terminal domain deletion variant resulting from a frameshift mutation caused by a 1 bp deletion at codon 517, as prepared in Example 13). In addition, the sequence from amino acids 301 to 599 of the full-length human Regnase-1 sequence was designated as C-terminal Regnase-1, and a construct having a FLAG tag on the N-terminal side and a recognition sequence for biotin ligase BirA on the C-terminal side was prepared (Reg1_301-599). The above-mentioned Regnase-1 was expressed in mammalian Expi293 cells, purified with FLAG M2 agarose, and isolated by gel filtration chromatography. When biotinylation was required, methods of nonpatent documents (BMC biotechnology, 2008,8,41; and Protein Science, 1999,8,921-929) were used.
(§3) Using Kinase assay buffer III (manufactured by SignalChem) supplemented with 2 mM DTT, 100 μM sodium vanadate, and 2 mM manganese chloride, kinase (IKKβ (manufactured by SignalChem) or TBK1 (manufactured by SignalChem)) and Regnase-1 were reacted in the presence of 10 μM ATP at room temperature for 2 hours to perform a phosphorylation reaction.
(§4) Phosphorylated Regnase-1 was detected by the AlphaScreen system. After each of the above-mentioned phosphorylated Regnase-1 antibodies was added and reacted at room temperature for one hour, anti-FLAG AlphaLISA Acceptor Beads (manufactured by PerkinElmer) and Protein A AlphaScreen Donor Beads (manufactured by PerkinElmer) were added, and EnVision (manufactured by PerkinElmer) was used to measure the excited luminescence. As a result, phosphorylated Regnase-1 produced by the phosphorylation reaction by kinase was specifically detected, and signals were confirmed to be enhanced in a manner dependent on Regnase-1 and kinase concentrations (FIG. 24).
(§5) After mixing 2 nM of the above-mentioned Regnase-1 and the compound, phosphorylated Regnase-1 produced by the phosphorylation reaction was detected by the AlphaScreen system. As the results, the inhibition rate was calculated from the signals obtained when adding the compound at each concentration, by defining the signal obtained with Regnase-1 alone to be 100% inhibition rate, and the signal obtained when the same amount of solvent (DMSO) is added in place of the compound as 0% inhibition rate. The 50% inhibition concentration (μM) was calculated from the obtained dose response curve (Table 11).

[2] = biological target: T2, Reg1_301-599 (amino acids 301-599 of human Regnase-1) phosphorylation by TBK1 (Homo sapiens, UniProt Q5D1E8); test: Regnase-1 phosphorylation inhibition by compounds (AlphaScreen), TBK1, C-terminal Regnase-1; settings: Table 13, read-out: Phosphorylation inhibition Reg1_301-599, 50% inhibition concentration (TBK1)
T2 construct: made in house; host or cells: Expi293 cells
T2 sequence (Q5D1E8 301-599): T1 sequence (Q5D1E8 301-599)
Description: as §2, §3, §4, §5

[3] = biological target: T3, ΔCTD_Reg1 (amino acids 1 to 546 of human Regnase-1) phosphorylation by TBK1 (Homo sapiens, UniProt Q5D1E8); test: Regnase-1 phosphorylation inhibition by compounds (AlphaScreen), TBK1, CTD-deficient Regnase-1
T3 construct: made in house; host or cells: Expi293 cells
T3 sequence (Q5D1E8 1-546): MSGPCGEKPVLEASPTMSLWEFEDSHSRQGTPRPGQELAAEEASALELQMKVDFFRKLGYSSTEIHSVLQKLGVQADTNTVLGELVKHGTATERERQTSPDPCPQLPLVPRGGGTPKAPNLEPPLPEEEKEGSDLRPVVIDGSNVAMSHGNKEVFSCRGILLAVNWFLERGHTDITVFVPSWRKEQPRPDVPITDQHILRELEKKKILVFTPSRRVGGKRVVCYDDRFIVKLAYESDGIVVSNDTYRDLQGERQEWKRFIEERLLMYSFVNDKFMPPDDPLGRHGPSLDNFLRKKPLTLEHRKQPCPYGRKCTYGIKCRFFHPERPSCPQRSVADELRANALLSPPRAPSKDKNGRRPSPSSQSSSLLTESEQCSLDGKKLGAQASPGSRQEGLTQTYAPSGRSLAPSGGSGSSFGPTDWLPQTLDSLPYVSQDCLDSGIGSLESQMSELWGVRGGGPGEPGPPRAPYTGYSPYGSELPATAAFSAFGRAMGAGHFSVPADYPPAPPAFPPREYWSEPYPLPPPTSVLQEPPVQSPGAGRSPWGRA
Text: as §1, §2, §3, §4, §5

[4] = biological target: T4, ΔCTD_Reg1 (amino acids 1 to 546 of human Regnase-1) phosphorylation by IKKβ (Homo sapiens, UniProt Q5D1E8); test: Regnase-1 phosphorylation inhibition by compounds (AlphaScreen), IKKβ, CTD-deficient Regnase-1
T4 construct: made in house; host or cells: Expi293 cells
T4 sequence (Q5D1E8 1-546): T3 sequence (Q5D1E8 1-546)
Description: as §2, §3, §4, §5

[5] = Table 13, phosphorylation by TBK1, read-out: Phosphorylation inhibition ΔCTD_Reg1, 50% inhibition concentration (TBK1)
[6] = Table 11, 2 nM Regnase-1, AlphaScreen, read-out: 50% inhibition concentration, Regnase-1 phosphorylation, ΔCTD_Reg1, TBK1
[7] = Table 11, 2 nM Regnase-1, AlphaScreen, read-out: 50% inhibition concentration, Regnase-1 phosphorylation, ΔCTD_Reg1, IKKβ
[8] = Table 14, phosphorylation by IKKβ, read-out: Phosphorylation inhibition ΔCTD_Reg1, 50% inhibition concentration (IKKβ)

SMILES | IC50 [1] [µM] | IC50 [2] [µM] | IC50 [3, 5] [µM] | IC50 [3, 6] [µM] | IC50 [4, 7] [µM] | IC50 [4, 8] [µM]
CC[C@H](C)[C@@H]1NC(=O)[C@H](CCCCN)NC(=O)[C@H](Cc2ccc(O)cc2)NC(=O)[C@H](Cc2c[nH]c3ccccc23)NC(=O)[C@H](CO)NC(=O)[C@H](CO)NC(=O)[C@H]([C@@H](C)O)NC(=O)[C@@H]2CCCN2C(=O)[C@@H](C)N(C)C(=O)C[C@@H](C(=O)N2CCCC2)NC(=O)[C@H](Cc2c[nH]c3ccccc23)NC1=O [PP23] (HELM PEPTIDE1{[C[C@H](C(=O)[*:2])N(C)[*:1]].P.T.S.S.W.Y.K.I.W.D.[C1CCN([*:1])C1]}$PEPTIDE1,PEPTIDE1,1:R1-11:R3$$$V2.0) | > 62.1 | – | – | – | – | > 62.1
CC[C@H](C)[C@@H]1NC(=O)[C@H](Cc2c[nH]c3ccccc23)NC(=O)[C@@H](Cc2ccccc2)NC(=O)[C@H](CCCCN)NC(=O)[C@H](C)N(C)C(=O)C[C@@H](C(=O)N2CCCC2)NC(=O)[C@H](CCC(=O)O)NC(=O)[C@H](Cc2ccccc2)NC(=O)[C@H](CO)NC(=O)[C@H](Cc2c[nH]cn2)NC(=O)[C@H](Cc2c[nH]cn2)NC1=O [PP20] (HELM PEPTIDE1{[meA].K.[dF].W.I.H.H.S.F.E.D.[C1CCN([*:1])C1]}$PEPTIDE1,PEPTIDE1,1:R1-11:R3$$$V2.0) | > 62.1 | > 62.1 | > 62.1 | – | – | > 62.1
CC[C@H](C)[C@@H]1NC(=O)[C@H](Cc2c[nH]c3ccccc23)NC(=O)[C@H](CCCNC(=N)N)NC(=O)[C@H](Cc2ccccc2)NC(=O)[C@H](CCC(N)=O)NC(=O)[C@H](C)NC(=O)[C@H](Cc2ccccc2)NC(=O)[C@H](CCCCN)NC(=O)[C@H](C)N(C)C(=O)C[C@@H](C(=O)N2CCCC2)NC(=O)[C@@H]2CCCN2C(=O)[C@H](Cc2ccc(O)cc2)NC1=O [PP11] (HELM PEPTIDE1{[meA].K.F.A.Q.F.R.W.I.Y.P.D.[C1CCN([*:1])C1]}$PEPTIDE1,PEPTIDE1,1:R1-12:R3$$$V2.0) | > 62.1 | > 62.1 | – | – | – | > 62.1
CC(C)[C@@H]1NC(=O)[C@H](CCCCN)NC(=O)[C@H](Cc2ccc(O)cc2)NC(=O)[C@H](Cc2c[nH]c3ccccc23)NC(=O)[C@H](CO)NC(=O)[C@H]([C@@H](C)O)NC(=O)[C@H](C)N(C)C(=O)C[C@@H](C(=O)N2CCCC2)NC(=O)[C@H](CCC(N)=O)NC(=O)CNC(=O)[C@H](Cc2c[nH]c3ccccc23)NC(=O)[C@H](CC(N)=O)NC1=O [PP1] (HELM PEPTIDE1{[meA].T.S.W.Y.K.V.N.W.G.Q.D.[C1CCN([*:1])C1]}$PEPTIDE1,PEPTIDE1,1:R1-12:R3$$$V2.0) | > 62.1 | > 62.1 | > 62.1 | > 62.1 | > 62.1 | > 62.1
CC[C@H](C)[C@@H]1NC(=O)[C@H](Cc2c[nH]c3ccccc23)NC(=O)[C@H](CCC(N)=O)NC(=O)[C@H](Cc2ccc(O)cc2)NC(=O)[C@H](C(C)C)NC(=O)[C@H](C)NC(=O)[C@H](Cc2ccc(O)cc2)NC(=O)[C@H](CCCNC(=N)N)NC(=O)[C@H](C)N(C)C(=O)C[C@@H](C(=O)N2CCCC2)NC(=O)[C@@H]2CCCN2C(=O)[C@H](Cc2ccc(O)cc2)NC1=O [PP12] (HELM PEPTIDE1{[meA].R.Y.A.V.Y.Q.W.I.Y.P.D.[C1CCN([*:1])C1]}$PEPTIDE1,PEPTIDE1,1:R1-12:R3$$$V2.0) | 20.7 | 19.6 | – | – | – | 27

The next compounds have a lower IC50 [1] than those just listed; values first:

IC50 [1] [µM] | IC50 [2] [µM] | IC50 [3, 5] [µM] | IC50 [3, 6] [µM] | IC50 [4, 7] [µM] | IC50 [4, 8] [µM] | SMILES
1.8 | 0.4 | 0.2 | – | – | – | CC[C@H](C)[C@@H]1NC(=O)[C@H](CO)NC(=O)[C@H](CCCNC(=N)N)NC(=O)[C@H](Cc2ccc(O)cc2)NC(=O)[C@H](Cc2ccc(O)cc2)NC(=O)[C@H](Cc2c[nH]c3ccccc23)NC(=O)[C@H](CO)NC(=O)[C@H](CCC(N)=O)NC(=O)[C@H](Cc2ccc(O)cc2)NC(=O)[C@H](CC(N)=O)NC(=O)[C@H](C)N(C)C(=O)C[C@@H](C(=O)N2CCCC2)NC(=O)[C@H](Cc2c[nH]c3ccccc23)NC1=O [PP10] (HELM PEPTIDE1{[meA].N.Y.Q.S.W.Y.Y.R.S.I.W.D.[C1CCN([*:1])C1]}$PEPTIDE1,PEPTIDE1,1:R1-13:R3$$$V2.0)
6.8 | 7.1 | – | 5.7 | 8.3 | – | CC[C@H](C)[C@@H]1NC(=O)[C@H](CCCNC(=N)N)NC(=O)[C@H](Cc2ccc(O)cc2)NC(=O)[C@H](Cc2c[nH]c3ccccc23)NC(=O)[C@H](C)NC(=O)[C@H](CO)NC(=O)[C@H](C)NC(=O)[C@H](Cc2c[nH]cn2)NC(=O)[C@H](CCCCN)NC(=O)[C@@H](C)N(C)C(=O)C[C@@H](C(=O)N2CCCC2)NC(=O)[C@H](Cc2c[nH]c3ccccc23)NC1=O [PP3] (HELM PEPTIDE1{[C[C@H](C(=O)[*:2])N(C)[*:1]].K.H.A.S.A.W.Y.R.I.W.D.[C1CCN([*:1])C1]}$PEPTIDE1,PEPTIDE1,1:R1-12:R3$$$V2.0)
0.5 | – | 1.8 | – | – | 0.2 | CC[C@H](C)[C@@H]1NC(=O)[C@H](CC(=O)O)NC(=O)[C@H](C)N(C)C(=O)C[C@@H](C(=O)N2CCCC2)NC(=O)[C@H](Cc2ccc(O)cc2)NC(=O)[C@H](CC(=O)O)NC(=O)[C@H](Cc2c[nH]c3ccccc23)NC(=O)[C@H](Cc2ccc(O)cc2)NC(=O)[C@H](CC(=O)O)NC(=O)[C@H](Cc2ccccc2)NC(=O)[C@H](Cc2c[nH]c3ccccc23)NC1=O [PP18] (HELM PEPTIDE1{[meA].D.I.W.F.D.Y.W.D.Y.D.[C1CCN([*:1])C1]}$PEPTIDE1,PEPTIDE1,1:R1-11:R3$$$V2.0)
